Source: US7652025B2 (priority 2001, dated 2010)
Counter-ions that a name gives are not always drawn.

Legend:
[1] = tested on: experimental sepsis models; settings: reported in literature; cited from earlier work
[2] = tested on: Lipopolysaccharide (LPS)-induced lethal sepsis; parameters: species or system ICR mice; settings: mouse, in vivo

Compound: CN1CC[C@]23c4c5ccc(O)c4O[C@H]2[C@@H](O)C=C[C@H]3[C@H]1C5 [morphine]
- survival rate of experimental sepsis models [1]: decrease survival rate

Compound: CN(C(=O)NCc1cccc(C(F)(F)F)c1)[C@@H]1CC[C@@]2(O)[C@H]3Cc4ccc(O)c5c4[C@@]2(CCN3CC2CC2)[C@H]1O5 [Compound 3, 17-cyclopropylmethyl-3,14β-dihydroxy-4,5α-epoxy-6β-(N-methyl-N′-3-trifluoromethylbenzylureido)morphinan tartaric acid salt]
- survival rate at 31 hours after administration of LPS [2]: 70.0%

Compound: CN(C(=O)/C=C/c1ccoc1)[C@@H]1CC[C@@]2(O)[C@H]3Cc4ccc(O)c5c4[C@@]2(CCN3CC2CC2)[C@H]1O5.Cl [Compound 1, (−)-17-(cyclopropylmethyl)-3,14β-dihydroxy-4,5α-epoxy-6 [N-methyl-trans-3-(3-furyl)acrylamide]morphinan hydrochloric acid salt]
- survival rate after 48 hours [2]: 40%
- survival rate at 24 hours after administration of LPS [2]: 80%
- survival rate of sepsis model animals (FIG. 1) [2]: increases the survival rate

Compound: (D)Phe-(D)Phe-(D)Nle-(D)Arg-NH2
- survival rate at 24 hours after administration of LPS [2]: 66.7%

Compound: C=CCN1CC[C@]23c4c5ccc(O)c4O[C@H]2C(=O)CC[C@@]3(O)[C@H]1C5 [naloxone]
- fever of experimental sepsis models [1]: suppresses fever
